Test results from ChEMBL document CHEMBL1201862, “PubChem BioAssay data set” (2004).
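In this assay, cells in 96-well plates receive the compound at five concentrations for 48 hours. Endpoints are linearly interpolated between the surrounding concentrations. At the GI50, growth is halved.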 Active and inactive are the calls of the source. Cut-off read from the data, not from the text of the source: active = GI50 up to about 1.1 µM and inactive = higher.

Experiments:
Assay in all cases: growth of human tumour cells (NCI), 48 h
U-251 = system: U-251
KM12 = system: KM12
SW-620 = system: SW-620
786-0 = system: 786-0
T47D = system: T47D
NCI-H460 = system: NCI-H460
SN12C = system: SN12C
SR = system: SR
A549 = system: A549
BT-549 = system: BT-549
RPMI-8226 = system: RPMI-8226
M14 = system: M14
UACC-257 = system: UACC-257
OVCAR-5 = system: OVCAR-5
MDA-MB-231 = system: MDA-MB-231
OVCAR-4 = system: OVCAR-4
NCI-H522 = system: NCI-H522
SF-295 = system: SF-295
HL-60 = system: HL-60
K562 = system: K562

Row | SMILES | GI50 (U-251) | GI50 (KM12) | GI50 (SW-620) | GI50 (786-0) | GI50 (T47D) | GI50 (NCI-H460) | GI50 (SN12C) | GI50 (SR) | GI50 (A549) | GI50 (BT-549) | GI50 (RPMI-8226) | GI50 (M14) | GI50 (UACC-257) | GI50 (OVCAR-5) | GI50 (MDA-MB-231) | GI50 (OVCAR-4) | GI50 (NCI-H522) | GI50 (SF-295) | GI50 (HL-60) | GI50 (K562)
1 | O=C1CCCCC/C1=C\c1ccc(Cl)cc1 | 30 µM (inactive) | 17.7 µM (inactive) | 24.7 µM (inactive) | 32.4 µM (inactive) | 37.3 µM (inactive) | 35.2 µM (inactive) | 35.3 µM (inactive) | 23.1 µM (inactive) | 36.1 µM (inactive) | 31.2 µM (inactive) | 25.4 µM (inactive) | 34.4 µM (inactive) | 32.4 µM (inactive) | 78.9 µM (inactive) | 73.6 µM (inactive) | 26.7 µM (inactive) | 25.4 µM (inactive) | 22 µM (inactive) | – | –
2 | COC(=O)[C@@H]1C[C@@]23CCCN4CC[C@@]5(c6cccc(OC)c6N(C=O)[C@]15CC2)[C@@H]43 | > 100 µM (inactive) | > 100 µM (inactive) | > 100 µM (inactive) | > 100 µM (inactive) | > 100 µM (inactive) | > 100 µM (inactive) | > 100 µM (inactive) | > 100 µM (inactive) | > 100 µM (inactive) | > 100 µM (inactive) | > 100 µM (inactive) | > 100 µM (inactive) | > 100 µM (inactive) | > 100 µM (inactive) | > 100 µM (inactive) | > 100 µM (inactive) | > 100 µM (inactive) | > 100 µM (inactive) | > 100 µM (inactive) | –
3 | COc1ccc(NS(=O)(=O)c2ccc3ncn(NS(=O)(=O)c4ccc(I)cc4)c(=O)c3c2)cc1 | > 100 µM (inactive) | 8.89 µM (inactive) | > 100 µM (inactive) | > 100 µM (inactive) | > 100 µM (inactive) | > 100 µM (inactive) | > 100 µM (inactive) | 72.9 µM (inactive) | > 100 µM (inactive) | > 10 µM (inactive) | 6.03 µM (inactive) | > 100 µM (inactive) | > 100 µM (inactive) | > 100 µM (inactive) | > 100 µM (inactive) | > 100 µM (inactive) | > 100 µM (inactive) | > 100 µM (inactive) | 49.3 µM (inactive) | 7.26 µM (inactive)
4 | CCC(C)C1NC(=O)C2CCCN2C(=O)C(CC2CO2)OC(=O)CCNC(=O)C(C)N(C)C(=O)C(C(C)C)N(C)C1=O (stereo not given) | 2.75 µM (inactive) | 1.06 µM (active) | 0.0478 µM (active) | 0.0601 µM (active) | 6.05 µM (inactive) | – | > 100 µM (inactive) | < 0.024 µM (active) | 0.197 µM (active) | < 0.0414 µM (active) | 0.968 µM (active) | 0.0182 µM (active) | < 0.01 µM (active) | 1.43 µM (inactive) | > 22.9 µM (inactive) | 3.11 µM (inactive) | 3.3 µM (inactive) | 0.176 µM (active) | < 0.0223 µM (active) | 0.0946 µM (active)
5 | C=C(C)c1nc(Oc2ccccc2)nc(Oc2ccccc2)n1 | 10.6 µM (inactive) | 3.09 µM (inactive) | 3.82 µM (inactive) | 4.58 µM (inactive) | 5.36 µM (inactive) | 9.04 µM (inactive) | 5.6 µM (inactive) | 2.86 µM (inactive) | 19.5 µM (inactive) | 3.32 µM (inactive) | 1.57 µM (inactive) | 5.42 µM (inactive) | 9.55 µM (inactive) | 16.6 µM (inactive) | 14.1 µM (inactive) | 11.2 µM (inactive) | 1.16 µM (inactive) | 14.9 µM (inactive) | 2.06 µM (inactive) | 2.23 µM (inactive)
6 | CC(C)(C)OC(=O)NCC(=O)NC1C/C(=N\O)c2sccc21 (stereo not given) | > 100 µM (inactive) | – | > 100 µM (inactive) | – | > 100 µM (inactive) | > 100 µM (inactive) | > 100 µM (inactive) | > 100 µM (inactive) | > 100 µM (inactive) | > 100 µM (inactive) | – | > 100 µM (inactive) | > 100 µM (inactive) | > 100 µM (inactive) | > 100 µM (inactive) | > 100 µM (inactive) | – | > 100 µM (inactive) | > 100 µM (inactive) | > 100 µM (inactive)
7 | S=c1nc2[nH]c3ccc(Br)cc3c2n[nH]1 | 53.2 µM (inactive) | 29.2 µM (inactive) | 53 µM (inactive) | 35.2 µM (inactive) | > 100 µM (inactive) | 63.1 µM (inactive) | 66.1 µM (inactive) | 19 µM (inactive) | 55 µM (inactive) | 50.2 µM (inactive) | 37.1 µM (inactive) | 51.5 µM (inactive) | 62.5 µM (inactive) | > 100 µM (inactive) | 49.9 µM (inactive) | 25 µM (inactive) | 24.3 µM (inactive) | – | 12 µM (inactive) | 47.8 µM (inactive)
8 | Cc1nn(C(=O)Cc2ccccc2)c2c1C(c1ccc(Cl)cc1)SC(=N)N2 (stereo not given) | – | > 100 µM (inactive) | > 100 µM (inactive) | > 100 µM (inactive) | > 100 µM (inactive) | > 100 µM (inactive) | > 100 µM (inactive) | > 100 µM (inactive) | > 100 µM (inactive) | > 100 µM (inactive) | > 100 µM (inactive) | > 100 µM (inactive) | > 100 µM (inactive) | – | > 100 µM (inactive) | – | > 100 µM (inactive) | > 100 µM (inactive) | > 100 µM (inactive) | > 100 µM (inactive)
9 | S=C1c2ccc(Cl)cc2-n2cnnc2C2CSCN12 (stereo not given) | > 100 µM (inactive) | > 100 µM (inactive) | > 100 µM (inactive) | > 100 µM (inactive) | > 100 µM (inactive) | > 100 µM (inactive) | > 100 µM (inactive) | 52.4 µM (inactive) | > 100 µM (inactive) | > 100 µM (inactive) | > 100 µM (inactive) | > 100 µM (inactive) | > 100 µM (inactive) | > 100 µM (inactive) | > 100 µM (inactive) | > 100 µM (inactive) | > 100 µM (inactive) | > 100 µM (inactive) | – | 13.9 µM (inactive)
10 | Nc1ncc(CN2CCOCC2)c(-c2ccccc2O)n1 | > 100 µM (inactive) | > 100 µM (inactive) | > 100 µM (inactive) | > 100 µM (inactive) | > 100 µM (inactive) | > 100 µM (inactive) | > 100 µM (inactive) | > 100 µM (inactive) | > 100 µM (inactive) | > 100 µM (inactive) | > 100 µM (inactive) | > 100 µM (inactive) | > 100 µM (inactive) | > 100 µM (inactive) | > 100 µM (inactive) | > 100 µM (inactive) | – | > 100 µM (inactive) | > 100 µM (inactive) | > 100 µM (inactive)
11 | CC(=O)Oc1cc2c(c3ncccc13)OC(C)(C)C2 | 12.4 µM (inactive) | 13.4 µM (inactive) | 13.3 µM (inactive) | 14.6 µM (inactive) | 17.1 µM (inactive) | 8.71 µM (inactive) | 12.2 µM (inactive) | 1.54 µM (inactive) | 12.9 µM (inactive) | > 100 µM (inactive) | 20.3 µM (inactive) | 12.8 µM (inactive) | 15.5 µM (inactive) | 14.8 µM (inactive) | 10.1 µM (inactive) | 12.1 µM (inactive) | 1.17 µM (inactive) | 13 µM (inactive) | – | 6.19 µM (inactive)
12 | CC(=O)OCC1=C(C(=O)O)N2C(=O)C(NC(=O)CSc3ccncc3)C2SC1 (stereo not given) | > 100 µM (inactive) | > 100 µM (inactive) | > 100 µM (inactive) | > 100 µM (inactive) | > 100 µM (inactive) | > 100 µM (inactive) | > 100 µM (inactive) | > 100 µM (inactive) | > 100 µM (inactive) | > 100 µM (inactive) | > 100 µM (inactive) | > 100 µM (inactive) | > 100 µM (inactive) | > 100 µM (inactive) | > 100 µM (inactive) | – | > 100 µM (inactive) | > 100 µM (inactive) | > 100 µM (inactive) | > 100 µM (inactive)
13 | C=CC1(C)CCC2C(=CCC3C(C)(COC4OC(C(=O)O)C(O)C(O)C4O)C(O)CCC23C)C1.C=CC1(C)CCC2C(=CCC3C2(C)CC(O)C(O)C3(C)COC2OC(C(=O)O)C(O)C(O)C2O)C1 (stereo not given) | > 100 µM (inactive) | > 100 µM (inactive) | > 100 µM (inactive) | > 100 µM (inactive) | > 100 µM (inactive) | > 100 µM (inactive) | > 100 µM (inactive) | 44.6 µM (inactive) | > 100 µM (inactive) | > 100 µM (inactive) | > 100 µM (inactive) | > 100 µM (inactive) | 83.4 µM (inactive) | > 100 µM (inactive) | > 100 µM (inactive) | > 100 µM (inactive) | > 100 µM (inactive) | 70.1 µM (inactive) | – | 54.5 µM (inactive)
14 | CN1C(=O)N(C)C2(CCN(CCCCCCF)CC2)C1=O | > 100 µM (inactive) | > 100 µM (inactive) | > 100 µM (inactive) | > 100 µM (inactive) | > 100 µM (inactive) | – | > 100 µM (inactive) | > 100 µM (inactive) | > 100 µM (inactive) | 23.3 µM (inactive) | > 100 µM (inactive) | > 100 µM (inactive) | > 100 µM (inactive) | > 100 µM (inactive) | > 100 µM (inactive) | – | > 100 µM (inactive) | > 100 µM (inactive) | > 100 µM (inactive) | > 100 µM (inactive)
15 | CCOC(=O)c1cn2c(n1)sc1cc(F)ccc12 | 77.6 µM (inactive) | 62.8 µM (inactive) | > 100 µM (inactive) | 52.8 µM (inactive) | > 100 µM (inactive) | > 100 µM (inactive) | > 100 µM (inactive) | 16.1 µM (inactive) | > 100 µM (inactive) | 77.6 µM (inactive) | > 100 µM (inactive) | 64.4 µM (inactive) | > 100 µM (inactive) | 25.2 µM (inactive) | 92.7 µM (inactive) | > 100 µM (inactive) | > 100 µM (inactive) | 74.8 µM (inactive) | – | > 100 µM (inactive)
